{"source": "PubChem BioAssay (NCI)", "experiment_in_all_cases": "NCI anticancer screen, dose series, 384-well format", "key": {"OVCAR-8 ovarian": {"test_system": "OVCAR-8 ovarian"}, "NCI-H226 lung": {"test_system": "NCI-H226 lung"}, "A498 renal": {"test_system": "A498 renal"}, "HOP-62 NSCLC": {"test_system": "HOP-62 NSCLC"}, "SN12C renal": {"test_system": "SN12C renal"}, "PC-3 prostate": {"test_system": "PC-3 prostate"}, "TK-10 renal": {"test_system": "TK-10 renal"}, "IGROV1 ovarian": {"test_system": "IGROV1 ovarian"}, "COLO 205 colon": {"test_system": "COLO 205 colon"}, "SF-539 CNS": {"test_system": "SF-539 CNS"}, "NCI-H322M lung": {"test_system": "NCI-H322M lung"}, "OVCAR-3 ovarian": {"test_system": "OVCAR-3 ovarian"}, "786-0 renal": {"test_system": "786-0 renal"}, "OVCAR-4 ovarian": {"test_system": "OVCAR-4 ovarian"}, "MCF7 breast": {"test_system": "MCF7 breast"}, "BT-549 breast": {"test_system": "BT-549 breast"}, "SK-MEL-5 melanoma": {"test_system": "SK-MEL-5 melanoma"}, "SK-MEL-2 melanoma": {"test_system": "SK-MEL-2 melanoma"}, "A549 NSCLC": {"test_system": "A549 NSCLC"}, "SF-295 CNS": {"test_system": "SF-295 CNS"}, "SF-268 CNS": {"test_system": "SF-268 CNS"}, "SNB-19 CNS": {"test_system": "SNB-19 CNS"}, "HS 578T breast": {"test_system": "HS 578T breast"}, "NCI/ADR-RES ovarian": {"test_system": "NCI/ADR-RES ovarian"}, "MDA-MB-468 breast": {"test_system": "MDA-MB-468 breast"}, "SK-MEL-28 melanoma": {"test_system": "SK-MEL-28 melanoma"}, "KM12 colon": {"test_system": "KM12 colon"}, "EKVX NSCLC": {"test_system": "EKVX NSCLC"}}, "note": "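Abbreviation: GI50, concentration required for 50% inhibition of growth. The concentration for full growth arrest is given as TGI.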"}
{"smiles": "O=C1C=CC(Nc2ccccc2[N+](=O)[O-])C1Nc1ccccc1[N+](=O)[O-]", "note": "(stereo not given)", "values": [{"measurement": "GI50", "setting": "OVCAR-8 ovarian", "result": 1660, "unit": "nM"}, {"measurement": "TGI", "setting": "OVCAR-8 ovarian", "result": 3060, "unit": "nM"}, {"measurement": "GI50", "setting": "NCI-H226 lung", "result": 1530, "unit": "nM"}, {"measurement": "TGI", "setting": "NCI-H226 lung", "result": 2930, "unit": "nM"}, {"measurement": "GI50", "setting": "A498 renal", "result": 2010, "unit": "nM"}, {"measurement": "TGI", "setting": "A498 renal", "result": 3800, "unit": "nM"}, {"measurement": "GI50", "setting": "HOP-62 NSCLC", "result": 2300, "unit": "nM"}, {"measurement": "TGI", "setting": "HOP-62 NSCLC", "result": 3940, "unit": "nM"}, {"measurement": "GI50", "setting": "SN12C renal", "result": 1760, "unit": "nM"}, {"measurement": "TGI", "setting": "SN12C renal", "result": 3150, "unit": "nM"}, {"measurement": "GI50", "setting": "PC-3 prostate", "result": 1580, "unit": "nM"}, {"measurement": "TGI", "setting": "PC-3 prostate", "result": 2960, "unit": "nM"}, {"measurement": "GI50", "setting": "TK-10 renal", "result": 1650, "unit": "nM"}, {"measurement": "TGI", "setting": "TK-10 renal", "result": 3030, "unit": "nM"}, {"measurement": "GI50", "setting": "IGROV1 ovarian", "result": 2020, "unit": "nM"}, {"measurement": "TGI", "setting": "IGROV1 ovarian", "result": 4160, "unit": "nM"}, {"measurement": "GI50", "setting": "COLO 205 colon", "result": 1910, "unit": "nM"}, {"measurement": "TGI", "setting": "COLO 205 colon", "result": 3370, "unit": "nM"}, {"measurement": "GI50", "setting": "SF-539 CNS", "result": 1590, "unit": "nM"}, {"measurement": "TGI", "setting": "SF-539 CNS", "result": 2950, "unit": "nM"}, {"measurement": "GI50", "setting": "NCI-H322M lung", "result": 13800, "unit": "nM"}, {"measurement": "TGI", "setting": "NCI-H322M lung", "result": 26900, "unit": "nM"}, {"measurement": "GI50", "setting": "OVCAR-3 ovarian", "result": 1520, "unit": "nM"}, {"measurement": "TGI", "setting": "OVCAR-3 ovarian", "result": 2870, "unit": "nM"}, {"measurement": "GI50", "setting": "786-0 renal", "result": 1780, "unit": "nM"}, {"measurement": "TGI", "setting": "786-0 renal", "result": 3320, "unit": "nM"}, {"measurement": "GI50", "setting": "OVCAR-4 ovarian", "result": 1780, "unit": "nM"}, {"measurement": "TGI", "setting": "OVCAR-4 ovarian", "result": 3340, "unit": "nM"}, {"measurement": "GI50", "setting": "MCF7 breast", "result": 1640, "unit": "nM"}, {"measurement": "TGI", "setting": "MCF7 breast", "result": 3040, "unit": "nM"}, {"measurement": "GI50", "setting": "BT-549 breast", "result": 1580, "unit": "nM"}, {"measurement": "TGI", "setting": "BT-549 breast", "result": 3080, "unit": "nM"}, {"measurement": "GI50", "setting": "SK-MEL-5 melanoma", "result": 1750, "unit": "nM"}, {"measurement": "TGI", "setting": "SK-MEL-5 melanoma", "result": 3200, "unit": "nM"}, {"measurement": "GI50", "setting": "SK-MEL-2 melanoma", "result": 445, "unit": "nM"}, {"measurement": "TGI", "setting": "SK-MEL-2 melanoma", "result": 1290, "unit": "nM"}, {"measurement": "GI50", "setting": "A549 NSCLC", "result": 3540, "unit": "nM"}, {"measurement": "TGI", "setting": "A549 NSCLC", "result": 11800, "unit": "nM"}, {"measurement": "GI50", "setting": "SF-295 CNS", "result": 19500, "unit": "nM"}, {"measurement": "TGI", "setting": "SF-295 CNS", "result": 34600, "unit": "nM"}, {"measurement": "GI50", "setting": "SF-268 CNS", "result": 2340, "unit": "nM"}, {"measurement": "TGI", "setting": "SF-268 CNS", "result": 4420, "unit": "nM"}, {"measurement": "GI50", "setting": "SNB-19 CNS", "result": 5200, "unit": "nM"}, {"measurement": "TGI", "setting": "SNB-19 CNS", "result": 15600, "unit": "nM"}, {"measurement": "GI50", "setting": "HS 578T breast", "result": 1840, "unit": "nM"}, {"measurement": "TGI", "setting": "HS 578T breast", "result": 3420, "unit": "nM"}, {"measurement": "GI50", "setting": "NCI/ADR-RES ovarian", "result": 2780, "unit": "nM"}, {"measurement": "TGI", "setting": "NCI/ADR-RES ovarian", "result": 5640, "unit": "nM"}, {"measurement": "GI50", "setting": "MDA-MB-468 breast", "result": 510, "unit": "nM"}, {"measurement": "TGI", "setting": "MDA-MB-468 breast", "result": 967, "unit": "nM"}, {"measurement": "GI50", "setting": "SK-MEL-28 melanoma", "result": 1950, "unit": "nM"}, {"measurement": "TGI", "setting": "SK-MEL-28 melanoma", "result": 3410, "unit": "nM"}, {"measurement": "GI50", "setting": "KM12 colon", "result": 2120, "unit": "nM"}, {"measurement": "TGI", "setting": "KM12 colon", "result": 5950, "unit": "nM"}, {"measurement": "GI50", "setting": "EKVX NSCLC", "result": 3020, "unit": "nM"}]}
